From article PMC8400200, “Selective Moonlighting Cell-Penetrating Peptides” (Pharmaceutics, 2021)
“Also recorded” adds a separate entry of the source.

How the values were obtained:
yeast or mammalian cells = details: cited from earlier work
Text: Additionally, three other peptides were designed to test the activation strategy (see Table 1). […] For this strategy we chose the peptidase neprilysin (also known as CD10), known to be overexpressed in some types of cancer tissues. The cleavage site sequence recognized by this protease has been well characte ...

[1] = test system: HEK293T, HEK293T-NEP and HeLa cells; experiment: Internalization assay, epifluorescence microscopy, compared or averaged over the three cell lines; assay type: cell-based; details: for internalization compared between peptides: medians of box plots (Figure 6A, 6B); for internalization compared between cell lines: medians of box plots (Figure 6A)
Procedure: (§1) This procedure was adapted from a previously reported protocol. Cells were incubated with TatNep, TatNepNoCPP or D-TatNepNoCPP peptides at a concentration of 10, 5 and 1 μM (see Table 1). All peptides were dissolved in a 1:4 DMSO-Water solution. Cells were incubated with each peptide for 30 min, then washed with PBS three times and fixed with 4% paraformaldehyde (Merck, Naucalpan de Juárez Edo. de Mexico, Mexico) for 30 min at room temperature. Afterwards, samples were washed with PBS three times and then incubated with 1 μg/mL of DAPI for 2 min at room temperature. For the images, 1000 cells were taken (3 replicates) by using the epifluorescent microscopy (Nikon ECLIPSE Ti-U). Due to a slight precipitation of the peptides, to avoid interference with the quantification, the 10% with the highest fluorescence intensity were considered outliers and were removed for all conditions. A total of 2700 cells remained for further analysis. Internalization analysis was performed by confocal microscopy. Cells were incubated with any of the three peptides at a concentration of 5 μM for 30 min (the fluorescence was strong and the precipitation reduced), then cell membranes were stained with the CellMask^TM Green Plasma Membrane Stain (ThermoFisher, Waltham, MA, USA) following specifications of the provider. Images were acquired with a Zeiss LSM800 microscope using the ZEN 2.6 (blue edition) software. All images were analyzed with the Fiji/ImageJ Software and are available at http://bis.ifc.unam.mx/ironbios/selmoonCPP/ (accessed on 21 July 2021).
For the mammalian cells images obtained from epifluorescence microscopy, a normality Shapiro–Wilk test was done for each individual condition (27 conditions).

[2] = test system: HEK293T, HEK293T-NEP and HeLa cells; experiment: Internalization analysis by confocal microscopy in mammalian cells; assay type: cell-based; details: 5 μM, 30 min, CellMask Green membrane stain
Procedure: as §1

[3] = test system: S. cerevisiae MATa and MATα cells; experiment: Internalization in yeast cells exposed separately, imaging flow cytometry; assay type: cell-based, Saccharomyces cerevisiae; details: for penetrating efficiency in MATa cells compared among the targeted CPPs: MATa exposed separately or mixed with MATα cells
Procedure: We adapted a previous protocol reported to analyze fluorescent single yeast cells. Briefly, cells were grown overnight and diluted to a final optical density measured at 600 nm of 1.0. A total of 116 μL of this cell dilution was mixed with 4 μL of a solution of penetrating peptide at 200 mM in a 1.5 mL plastic tube. This mixture was analyzed every 5 min for 60 min in a flux cytometer coupled to a multiphotonic microscope (Amnis ImageStream Mark II). In that equipment, 10,000 pictures were taken to record green (excitation 488 nm and emission 509 nm) and red (excitation 561 nm and emission 669 nm) fluorescence and the bright field. These images were then analyzed with the IDEAS software that is part of the Amnis equipment, to identify peptide internalization (red fluorescence). Two types of experiments were conducted; in one set, we exposed MATa and MATα cells separately to peptides α-NLS-C, NLS-α-CE and chimera (see Table 1 for a description of the peptide sequences). In another set of experiments, we exposed MATa and MATα cells mixed together to different penetrating peptides labeled with TAMRA; for this last experiment, the ribosomal protein RPL9A was fused to GFP in MATa cells, to facilitate their distinction from MATα cells. Events recorded in this way were further analyzed to discard cell debris and images that included clumps of cells. Images with a total area of 20–50 μm and an aspect ratio of 0.7 allowed us to identify events that include 1 or 2 cells; furthermore, images with less than 1500 arbitrary units of fluorescence were discarded. The data were plotted using ggplot2 from the R package. Please note that the reported experimental conditions were selected among several trials on the AMNIs equipment to identify the best conditions for these experiments.

MATa cells = details: cited from earlier work
Text: In the targeted strategy, we noticed differences in penetrating efficiencies among the three targeted CPPs. […] This is observed when MATa are exposed to these peptides separately or mixed with MATα cells. […] However, if NLS-α-CE and chimera peptides would be disrupting the membrane potential of MATa cells as part of their toxic ...

[4] = test system: S. cerevisiae MATa and MATα cells; experiment: Internalization in yeast cells followed by confocal microscopy; assay type: cell-based, Saccharomyces cerevisiae; details: 50 μM peptide, OD600 0.4, cells in 0.5% agarose, pictures every 3 min for 1 h, two sets of experiments
Procedure: To confirm that the fluorescence detected using the AMNIS multiphotonic microscope was the fluorescence inside cells, we carried out confocal microscopy experiments (Zeiss LSM510 META) by adapting a previous report. For that end, yeast cells for each yeast haplotype were grown overnight for 14 h in YPD (1% yeast extract (USB Corp., Cleveland, OH, USA), 2% bacto peptone (Becton, Dickinson and Company, Franklin Lakes, NJ, USA) and 2% glucose (Merck, Naucalpan de Juárez Edo. De Mexico, Mexico). Cells were then centrifuged and resuspended in YPD. An OD600 of 0.4 was used for the confocal microscopy experiments, whereas for the cytometry experiments (above) a value of 1.0 was chosen. Yeast cells were immobilized using low melting point agarose (Agarose SFR VWR Life Technologies, Radnor PA, USA) at 0.5%. The peptide concentration used for these experiments was 50 μM. Prior to performing any observations, 3 cycles of sonications (sonicator Bransonic 32) for 3 min each were performed to dissolve potential peptide aggregates. A total of 12.5 μL of yeast inoculum, 1.5 μL of TAMRA-α-NLS-C solution and 1 μL of previously heated agarose were placed on a microscope slide. […] Images were analyzed using Fiji software and the fluorescence intensity recorded for each cell was divided by the area of the corresponding cell.

HEK293T cells = experiment: Internalization assay, epifluorescence microscopy; assay type: cell-based; details: 10 μM, 30 min, fixed cells, 2700 cells (3 replicates)
Procedure: as §1, with “Internalization analysis was performed by confocal microscopy.” left out, “Images were acquired with a Zeiss LSM800 microscope using the ZEN 2.6 (blue edition) software.” left out, “2021). […]” for “2021).”

HEK293T-NEP cells = experiment: Internalization assay, epifluorescence microscopy; assay type: cell-based; details: 10 μM, 30 min, fixed cells, 2700 cells (3 replicates)
Procedure: HEK293T cells were transfected as previously described with the plasmid PCSC-SP-PW-Nep (Addgene, Watertown, MA, USA), which contains the human neprilysin (MME) gene. This transfection was done with the use of the reagent polyethylenimine (PEI) according to the stable transfection procedures for adherent cells. The transfected HEK293T cells were cultured with DMEM containing 10% FBS and Zeocin 400 µg/mL (ThermoFisher, Waltham, MA, USA) to select stably transfected cells, which were recovered after the third day of transfection. […]
This procedure was adapted from a previously reported protocol. […] Due to a slight precipitation of the peptides, to avoid interference with the quantification, the 10% with the highest fluorescence intensity were considered outliers and were removed for all conditions. […] Cells were incubated with any of the three peptides at a concentration of 5 μM for 30 min (the fluorescence was strong and the precipitation reduced), then cell membranes were stained with the CellMask^TM Green Plasma Membrane Stain (ThermoFisher, Waltham, MA, USA) following specifications of the provider. […] All images were analyzed with the Fiji/ImageJ Software and are available at http://bis.ifc.unam.mx/ironbios/selmoonCPP/ (accessed on 21 July 2021). […]

[5] = epifluorescence, 10, 5 and 1 μM, 30 min

In the case of “5(6)-carboxytetramethyl rhodamine [TAMRA]”, the “internalization of the free fluorophore” value (yeast or mammalian cells) is given as “do not internalize”.
In the case of “D-(YGRKKRRQRRRFFGFLADDDDEE) [D-TatNepNoCPP, all-D isomer of TatNepNoCPP, negative control, N-terminal TAMRA]”, the “concentration dependence of internalization” value [1, 5] is reported as “does not present a concentration dependent internalization”, the “internalization compared between peptides” value [1, 5] is reported as “less internalized in all cell lines; also recorded: TatNepNoCPP > TatNep > D-TatNepNoCPP” and the “internalization by orthogonal projection” value [2] is reported as “less internalization compared with the other two peptides in all three cell lines”. The pattern of fluorescence [2] was “diffused layer covering the cells”.
For “FRKWRRKPKKKRKVWWRKVKRRWHWLQLKPGQPMY [NLS-α-CE]”, the “penetrating efficiency in MATa cells compared among the targeted CPPs” value [3] is given as “penetrate less efficiently MATa cells expressing the targeted surface protein (Ste2p) than the α-NLS-C peptide” and the “toxicity to MATa cells” value (MATa cells) is given as “toxic to MATa cells”.
For “KRRWRFVWMNPKKKRKVPPWPYLLWWHWLQLKPGQPMY [Chimera]”, the “penetrating efficiency in MATa cells compared among the targeted CPPs” value [3] is given as “penetrate less efficiently MATa cells expressing the targeted surface protein (Ste2p) than the α-NLS-C peptide” and the “toxicity to MATa cells” value (MATa cells) is given as “toxic to MATa cells”.
For RLWHWLQLKPGQPMYWRQPKSKRKVRR [α-NLS-C], the “selectivity of internalization (fluorescence intensity inside cells), MATa vs MATα” value ([3]; living cells exposed separately, OD600 1.0, TAMRA-labelled peptide (4 μL of 200 mM solution in 120 μL), read every 5 min for 60 min, Amnis ImageStream, 10,000 cells per condition, repeated at least 3 times) was “more selectivity towards MATα cells than NLS-α-CE and chimera peptides” and the “TAMRA fluorescence inside cells, MATa vs MATα” value [4] was “cells expressing the α-pheromone receptor STE2 (MATa cells) internalized more fluorescence than cells that did not express the receptor”.
With “YGRKKRRQRRRFFG [TatNep, peptide produced by digestion of TatNepNoCPP by neprilysin, positive control for internalization, N-terminal TAMRA]” the “ratio between medians of normalized fluorescence intensity, column peptide against row peptide D-TatNepNoCPP” value (HEK293T cells) was 2.8, the “ratio between medians of normalized fluorescence intensity, column peptide against row peptide TatNepNoCPP” value (HEK293T cells) was 2.4 and the “internalization compared between cell lines” value [1, 5] was “internalized in HEK293T and the over-expressing HEK293T-NEP cells with the same efficiency; also recorded: HeLa cells internalized more of this peptide at 10 μM than the other cell lines”. For the same substance, the “internalization compared between peptides” value [1, 5] was “TatNepNoCPP > TatNep > D-TatNepNoCPP” and the pattern of fluorescence [2] was “punctuated fluorescence”.
With YGRKKRRQRRRFFGFLADDDDEE [TatNepNoCPP] the “ratio between medians of normalized fluorescence intensity, column peptide against row peptide TatNep” value (HEK293T-NEP cells) was 2.4, the “internalization, times higher than TatNep” value ([1]; average of the ratios of medians per cell line, 10 μM) was 3 times and the “internalization compared between cell lines” value [1, 5] was “HeLa > HEK293T > HEK293T-NEP”. The “internalization compared between peptides” value [1, 5] was “best internalization with respect to the other peptides for any cell line; also recorded: TatNepNoCPP > TatNep > D-TatNepNoCPP” and the pattern of fluorescence [2] was “diffused layer covering the cells”.
